ChEMBL document CHEMBL1201862, “PubChem BioAssay data set” (2004)
Calls of active or inactive are those of the source.

Legend:
[1] = biological target: Luciferin 4-monooxygenase (Photinus pyralis, UniProt P08659); assay: inhibition of purified Photinus pyralis luciferase – biochemical, luminescence, dose response (AID 1891)
[2] = Luminescence Cell-Based Dose Confirmation HTS to Identify Inhibitors of Platelet Dense Granule Release. [Related pubchem assays: 1663 (Primary HTS), 1678 (Summary of Project)]; format: functional
[3] = biological target: T1, Microphthalmia-associated transcription factor (Homo sapiens, UniProt O75030); assay: reducers of TRPM1 reporter luminescence, concentration series – cell-based, SK-MEL-5, cherry-picked, set 3, MITF inhibitor project, dose response (AID 493073); format: functional;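 also: SK-MEL-5 melanoma cells with luciferase driven by the MITF target TRPM1 promoter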
T1 sequence (O75030 whole entry): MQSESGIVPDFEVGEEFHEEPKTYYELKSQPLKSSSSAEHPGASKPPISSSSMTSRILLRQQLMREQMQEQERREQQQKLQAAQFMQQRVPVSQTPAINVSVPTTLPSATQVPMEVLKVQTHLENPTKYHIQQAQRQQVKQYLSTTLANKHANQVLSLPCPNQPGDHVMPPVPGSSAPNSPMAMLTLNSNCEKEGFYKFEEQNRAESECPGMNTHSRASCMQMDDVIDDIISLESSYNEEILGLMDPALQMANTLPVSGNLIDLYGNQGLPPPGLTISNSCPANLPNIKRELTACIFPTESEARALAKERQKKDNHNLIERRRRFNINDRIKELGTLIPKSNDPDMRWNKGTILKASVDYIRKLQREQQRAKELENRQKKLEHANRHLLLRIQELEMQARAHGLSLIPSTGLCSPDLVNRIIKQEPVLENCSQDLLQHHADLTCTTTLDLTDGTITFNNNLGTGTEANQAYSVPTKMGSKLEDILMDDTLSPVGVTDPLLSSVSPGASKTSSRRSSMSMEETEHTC

[4] = HEK-293T cell viability reduction – luminescence, B-cell screen hits, cytotoxicity control for BCR NF-kB inhibitor project, dose response (AID 489021); format: functional, cell-based;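 also: HEK-293T cells carrying an NF-kB luciferase reporter; cells exposed to compound for about 14 hours before viability readout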
Coagulation factor XII = biological target: T2, Coagulation factor XII (Homo sapiens, UniProt P00748); format: functional;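 also: activated factor XIIa alpha cleaving a fluorogenic AMC peptide substrate; inhibitor potency from loss of enzyme activity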
T2 sequence (P00748 whole entry): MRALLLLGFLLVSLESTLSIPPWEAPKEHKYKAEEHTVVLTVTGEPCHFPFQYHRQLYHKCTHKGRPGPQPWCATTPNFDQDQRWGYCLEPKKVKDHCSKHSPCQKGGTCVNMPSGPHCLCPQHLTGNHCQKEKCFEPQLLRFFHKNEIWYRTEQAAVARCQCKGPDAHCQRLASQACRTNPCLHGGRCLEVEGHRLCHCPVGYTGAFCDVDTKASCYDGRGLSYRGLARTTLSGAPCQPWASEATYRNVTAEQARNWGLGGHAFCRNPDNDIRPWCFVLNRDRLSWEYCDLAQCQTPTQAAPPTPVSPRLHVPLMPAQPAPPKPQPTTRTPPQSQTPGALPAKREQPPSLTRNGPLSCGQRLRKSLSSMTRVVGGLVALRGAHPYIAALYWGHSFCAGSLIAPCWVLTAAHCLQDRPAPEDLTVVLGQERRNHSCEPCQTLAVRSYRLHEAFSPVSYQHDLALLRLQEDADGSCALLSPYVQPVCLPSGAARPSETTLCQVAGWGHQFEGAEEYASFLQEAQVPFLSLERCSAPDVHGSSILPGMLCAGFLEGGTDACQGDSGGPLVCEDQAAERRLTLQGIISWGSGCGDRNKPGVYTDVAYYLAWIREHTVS

[5] = biological target: T3, Short transient receptor potential channel 4 (Mus musculus, UniProt Q9QUQ5); assay: calcium entry via TRPC4 opening agents – cell-based, HEK293 TRPC4/mu-opioid, Fluo-4 calcium, dose response (AID 434937); format: functional
T3 sequence (Q9QUQ5 whole entry): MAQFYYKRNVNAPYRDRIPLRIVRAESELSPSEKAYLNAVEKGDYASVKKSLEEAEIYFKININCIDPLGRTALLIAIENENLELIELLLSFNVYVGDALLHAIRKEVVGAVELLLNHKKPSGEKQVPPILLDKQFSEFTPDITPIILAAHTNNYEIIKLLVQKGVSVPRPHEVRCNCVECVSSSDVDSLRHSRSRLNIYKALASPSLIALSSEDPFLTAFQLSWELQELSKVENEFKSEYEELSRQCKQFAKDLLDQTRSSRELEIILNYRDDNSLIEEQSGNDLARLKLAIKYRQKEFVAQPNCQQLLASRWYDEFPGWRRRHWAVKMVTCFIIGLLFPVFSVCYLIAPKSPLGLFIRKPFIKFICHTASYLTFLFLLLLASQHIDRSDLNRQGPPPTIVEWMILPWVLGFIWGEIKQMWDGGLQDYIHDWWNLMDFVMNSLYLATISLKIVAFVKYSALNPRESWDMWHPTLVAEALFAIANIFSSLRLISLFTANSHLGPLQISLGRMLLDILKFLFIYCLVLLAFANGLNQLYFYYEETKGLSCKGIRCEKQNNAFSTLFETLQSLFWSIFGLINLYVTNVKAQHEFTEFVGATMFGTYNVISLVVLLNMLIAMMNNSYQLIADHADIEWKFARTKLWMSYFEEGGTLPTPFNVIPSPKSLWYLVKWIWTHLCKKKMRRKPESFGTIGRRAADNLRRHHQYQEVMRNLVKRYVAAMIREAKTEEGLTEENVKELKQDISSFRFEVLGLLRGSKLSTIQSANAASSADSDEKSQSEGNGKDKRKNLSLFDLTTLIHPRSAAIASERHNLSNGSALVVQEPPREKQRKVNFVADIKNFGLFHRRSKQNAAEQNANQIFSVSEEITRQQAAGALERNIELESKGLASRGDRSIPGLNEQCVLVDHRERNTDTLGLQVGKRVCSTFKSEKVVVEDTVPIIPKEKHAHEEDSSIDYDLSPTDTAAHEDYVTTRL

Cytochrome P450 1A2 = biological target: T4, Cytochrome P450 1A2 (Homo sapiens, UniProt P05177);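 also: PubChem cytochrome P450 panel assay, CYP1A2 panel member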
T4 sequence (P05177 whole entry): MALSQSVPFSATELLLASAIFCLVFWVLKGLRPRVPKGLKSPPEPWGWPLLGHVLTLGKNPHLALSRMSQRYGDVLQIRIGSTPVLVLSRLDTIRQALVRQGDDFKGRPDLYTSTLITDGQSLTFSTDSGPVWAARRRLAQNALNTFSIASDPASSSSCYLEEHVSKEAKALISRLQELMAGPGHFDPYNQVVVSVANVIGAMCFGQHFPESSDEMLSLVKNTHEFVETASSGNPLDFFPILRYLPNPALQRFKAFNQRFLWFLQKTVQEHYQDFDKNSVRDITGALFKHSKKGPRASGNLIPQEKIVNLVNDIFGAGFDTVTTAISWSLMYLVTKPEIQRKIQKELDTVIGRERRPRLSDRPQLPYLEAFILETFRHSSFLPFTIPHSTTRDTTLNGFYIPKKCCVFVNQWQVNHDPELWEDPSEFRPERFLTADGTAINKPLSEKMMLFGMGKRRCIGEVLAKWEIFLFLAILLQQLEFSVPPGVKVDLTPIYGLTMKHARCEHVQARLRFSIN

Cytochrome P450 2C9 = Cytochrome P450 2C9 (Homo sapiens, UniProt P11712)
[6] = biological target: Induced myeloid leukemia cell differentiation protein Mcl-1 (Homo sapiens, UniProt Q07820); format: functional
[7] = Luminescence Cell-Based Dose Response HTS to Identify Inhibitors of 5'UTR Stem-Loop Driven Prion Protein mRNA Translation in H4 Neuroglioblastoma Cells. [Related pubchem assays: 1827 (Project Summary), 1813 (Primary HTS)]; format: functional
[8] = luciferase reporter signal suppression in cells – H4 neuroglioma cells, luminescence, dose response (AID 1990); format: functional, cell-based
[9] = alpha-synuclein stem-loop luciferase translation blockers – H4 neuroglioma cells, luminescence, confirmation (AID 1988); format: functional, cell-based
Leucine aminopeptidase = biological target: T5, Leucine aminopeptidase (Plasmodium falciparum 3D7, UniProt Q8IL11); assay: P. falciparum M17LAP inhibitors, primary screen, biochemical, fluorogenic H-Leu-NHMec substrate, 1536-well (AID 1619); format: functional
T5 sequence (Q8IL11 whole entry): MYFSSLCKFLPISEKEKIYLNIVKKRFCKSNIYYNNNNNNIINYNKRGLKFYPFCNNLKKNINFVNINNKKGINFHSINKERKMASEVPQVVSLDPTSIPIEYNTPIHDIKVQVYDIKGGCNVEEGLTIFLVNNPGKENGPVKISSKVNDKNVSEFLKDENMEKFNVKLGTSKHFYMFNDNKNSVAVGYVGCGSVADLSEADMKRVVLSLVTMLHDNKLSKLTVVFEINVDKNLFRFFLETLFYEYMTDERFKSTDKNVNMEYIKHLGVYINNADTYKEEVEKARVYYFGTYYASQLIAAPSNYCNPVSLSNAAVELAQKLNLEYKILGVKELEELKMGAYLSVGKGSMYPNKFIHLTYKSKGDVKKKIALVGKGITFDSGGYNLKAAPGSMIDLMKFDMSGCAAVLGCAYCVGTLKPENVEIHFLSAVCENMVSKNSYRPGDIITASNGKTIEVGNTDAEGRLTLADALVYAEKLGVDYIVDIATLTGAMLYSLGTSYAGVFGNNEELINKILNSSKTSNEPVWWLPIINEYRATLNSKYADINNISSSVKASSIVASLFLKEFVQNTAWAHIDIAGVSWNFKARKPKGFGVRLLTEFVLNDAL

Estrogen receptor = biological target: T6, Estrogen receptor (Homo sapiens, UniProt P03372);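 also: potency for inhibiting coactivator peptide recruitment to the receptor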
T6 sequence (P03372 whole entry): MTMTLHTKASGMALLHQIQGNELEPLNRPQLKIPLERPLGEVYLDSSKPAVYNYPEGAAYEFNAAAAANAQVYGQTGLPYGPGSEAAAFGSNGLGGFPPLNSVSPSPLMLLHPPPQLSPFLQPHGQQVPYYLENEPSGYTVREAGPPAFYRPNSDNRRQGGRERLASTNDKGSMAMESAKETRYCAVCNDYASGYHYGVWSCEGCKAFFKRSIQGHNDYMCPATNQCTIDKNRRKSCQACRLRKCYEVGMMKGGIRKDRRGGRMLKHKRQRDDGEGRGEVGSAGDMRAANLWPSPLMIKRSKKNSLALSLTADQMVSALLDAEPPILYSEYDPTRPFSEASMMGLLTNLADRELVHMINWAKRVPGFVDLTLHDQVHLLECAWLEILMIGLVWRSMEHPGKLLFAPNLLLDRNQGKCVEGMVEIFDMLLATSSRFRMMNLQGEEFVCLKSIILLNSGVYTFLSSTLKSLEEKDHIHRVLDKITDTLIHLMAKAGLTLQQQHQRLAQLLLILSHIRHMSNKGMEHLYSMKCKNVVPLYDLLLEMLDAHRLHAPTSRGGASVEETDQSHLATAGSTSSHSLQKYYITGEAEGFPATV

cells = format: functional

Sequence of Luciferin 4-monooxygenase (P08659 whole entry): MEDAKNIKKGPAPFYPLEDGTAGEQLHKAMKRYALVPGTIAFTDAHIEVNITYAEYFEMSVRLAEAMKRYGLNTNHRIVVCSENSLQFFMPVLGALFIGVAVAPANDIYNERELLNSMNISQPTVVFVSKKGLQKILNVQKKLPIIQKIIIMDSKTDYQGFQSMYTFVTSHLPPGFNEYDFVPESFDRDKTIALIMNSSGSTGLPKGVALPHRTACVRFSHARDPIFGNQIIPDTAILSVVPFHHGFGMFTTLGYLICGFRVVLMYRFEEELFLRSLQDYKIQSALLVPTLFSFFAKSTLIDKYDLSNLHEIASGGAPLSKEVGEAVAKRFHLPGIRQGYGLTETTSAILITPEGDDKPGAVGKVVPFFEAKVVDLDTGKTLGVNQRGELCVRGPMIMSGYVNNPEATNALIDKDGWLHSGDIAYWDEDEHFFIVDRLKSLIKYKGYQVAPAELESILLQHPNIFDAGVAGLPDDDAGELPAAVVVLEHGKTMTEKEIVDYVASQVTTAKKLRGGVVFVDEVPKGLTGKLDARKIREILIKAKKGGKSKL
Sequence of Induced myeloid leukemia cell differentiation protein Mcl-1 (Q07820 whole entry): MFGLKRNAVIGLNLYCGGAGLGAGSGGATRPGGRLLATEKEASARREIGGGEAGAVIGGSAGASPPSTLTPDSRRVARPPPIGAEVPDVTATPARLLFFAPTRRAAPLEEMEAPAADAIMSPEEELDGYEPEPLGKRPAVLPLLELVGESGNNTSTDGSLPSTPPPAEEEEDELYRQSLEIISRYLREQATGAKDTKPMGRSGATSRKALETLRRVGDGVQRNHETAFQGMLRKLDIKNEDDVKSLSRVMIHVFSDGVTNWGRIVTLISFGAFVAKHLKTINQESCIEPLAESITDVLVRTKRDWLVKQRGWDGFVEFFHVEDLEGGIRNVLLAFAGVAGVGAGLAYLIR
Sequence of Cytochrome P450 2C9 (P11712 whole entry): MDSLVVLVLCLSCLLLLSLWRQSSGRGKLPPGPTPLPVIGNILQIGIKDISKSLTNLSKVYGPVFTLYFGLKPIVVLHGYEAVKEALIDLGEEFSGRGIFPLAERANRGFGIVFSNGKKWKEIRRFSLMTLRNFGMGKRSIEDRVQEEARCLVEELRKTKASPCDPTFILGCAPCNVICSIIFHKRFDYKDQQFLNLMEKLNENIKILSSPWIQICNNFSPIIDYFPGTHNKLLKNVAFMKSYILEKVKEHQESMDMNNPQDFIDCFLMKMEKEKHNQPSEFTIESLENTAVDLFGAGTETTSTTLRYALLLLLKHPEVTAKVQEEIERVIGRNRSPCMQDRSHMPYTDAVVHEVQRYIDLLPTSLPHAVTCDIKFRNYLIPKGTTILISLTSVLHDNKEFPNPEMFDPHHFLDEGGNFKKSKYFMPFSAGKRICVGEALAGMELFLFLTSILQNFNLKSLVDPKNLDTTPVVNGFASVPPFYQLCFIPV

For `COc1ccc(S(=O)(=O)NCC(c2cccnc2)N2CCN(C)CC2)cc1C` (stereo not drawn), the EC50 [1] was > 112 µM (not active) and the EC50 [2] was > 112 µM (not active).
With `O=C(CCl)N1CCN(S(=O)(=O)c2ccc3c(c2)CCC3)CC1` the AC50 [3] was 20.7 µM (active) and the IC50 [4] was > 80 µM (inactive).
With `O=C(CSc1nc2ccccc2s1)NC1CCCC1` the IC50 (Coagulation factor XII) was > 50 µM (inactive).
In the case of `CN1CCN(c2ccc(NC(=O)COc3cccc4ccccc34)cc2)CC1`, the EC50 [5] is reported as 2.99 µM (active).
In the case of `Cc1ccc(-c2c(C#N)c(N)n(-c3ccccc3)c(=O)c2C#N)cc1`, the EC50 [1] is reported as > 112 µM (not active), the AC50 (Cytochrome P450 1A2) is reported as 11.2 µM (inconclusive) and the AC50 (Cytochrome P450 2C9) is reported as 7.94 µM (inconclusive). The EC50 [2] was 3.25 µM (active).
With `Cc1ccc(-n2nc(C)cc2NC(=O)COc2cc(C)cc3oc(=O)c4c(c23)CCC4)cc1` the IC50 [6] was < 0.4 µM (not active).
For `CCOC(=O)C1CCN(c2ncnc3c2cnn3-c2ccc(OC)cc2)CC1`, the IC50 [4] was > 80 µM (inactive).
In the case of `Cc1ccc(-c2nn3c(C)nnc3c3ccccc23)cc1S(=O)(=O)NC(C)(C)CO`, the IC50 [4] is reported as > 80 µM (inactive).
With `CC(C)(C)SCCNS(=O)(=O)c1ccccc1` the IC50 (Coagulation factor XII) was > 50 µM (inactive).
With `CC1(C)CC(CCNCc2ccc3c(c2)OCO3)(Cc2ccccc2)CCO1` (stereo not drawn) the EC50 [5] was 6.68 µM (active).
In the case of `N[C@@H](Cc1cc(I)c(Oc2ccc(O)c(I)c2)c(I)c1)C(=O)O` [LIOTHYRONINE SODIUM], the IC50 [6] is reported as 14.7 µM (active).
In the case of `Cc1nc2cc(-c3ccccc3)nn2c(C)c1CCC(=O)N1CCC2(CC1)OCCO2`, the EC50 [7] is reported as 14.6 µM (active), the EC50 [8] is reported as < 0.1 µM (active) and the IC50 [4] is reported as > 80 µM (inactive). The EC50 [9] was 0.259 µM (active).
In the case of `CCOc1c(Br)cc(CNc2nc[nH]n2)cc1OC`, the IC50 (Leucine aminopeptidase) is reported as 22.7 µM (active).
In the case of `CCOC(=O)c1c(-c2ccc(C)o2)csc1N`, the EC50 [1] is reported as > 112 µM (not active) and the EC50 [2] is reported as > 112 µM (not active).
For `O=C1NC(=O)N(Cc2ccco2)C(=O)/C1=C/NC1CC1`, the EC50 [1] was > 112 µM (not active) and the EC50 [2] was > 112 µM (not active).
In the case of `NCCNC(=O)c1c(NC(=O)c2ccccc2)sc2c1CCCC2`, the EC50 [5] is reported as 6.68 µM (active).
For `NC(=S)n1[nH]c(-c2ccc([N+](=O)[O-])cc2)c(/N=N/c2ccc(O)cc2)c1=O`, the IC50 (Estrogen receptor) was 11 µM (active), the IC50 [6] was 3.47 µM (active) and the IC50 (cells) was 49.6 µM (active).
In the case of `Cc1ccc2sc(NC(=O)C3CC3)nc2c1C`, the EC50 [1] is reported as > 112 µM (not active) and the EC50 [2] is reported as > 112 µM (not active).
In the case of `COc1cccc(C(c2sc3nc(C)nn3c2O)N2CCN(c3ccccc3F)CC2)c1` (stereo not drawn), the EC50 [1] is reported as > 112 µM (not active) and the EC50 [2] is reported as > 112 µM (not active).
For `COc1ccc(-c2ccc(C)cc2)cc1[C@H]1[C@H]2C=CC[C@@H](C)[C@@H]2C(=O)N1Cc1ccccc1`, the IC50 [4] was > 80 µM (inactive).
With `O=C1NC(=O)N(Cc2ccccc2)C(=O)/C1=C\c1ccco1` the IC50 (Leucine aminopeptidase) was 62.3 µM (active).
With `O=C1CN(Cc2ccccc2)/C(=N\Cc2ccco2)S1` the IC50 (Coagulation factor XII) was > 50 µM (inactive).
For `O=C(c1cccnc1)C1CCCN(Cc2nc(-c3cnccn3)no2)C1` (stereo not drawn), the IC50 (Coagulation factor XII) was > 50 µM (inactive).
With `CCCN(CCC)CCCNC(=O)C1CCC(CNS(=O)(=O)c2cccc3nsnc23)CC1` (stereo not drawn) the EC50 [5] was 0.531 µM (active).
